Patent publication US8569296B2, “PI3K (delta) selective inhibitors” (Xcovery Holding Company, LLC, priority 2009, dated 2013)
Like-named read-outs stand apart in the source and are kept apart here.

What was measured:
Assay in all cases: Kinase binding assay (kinase-tagged T7 phage / qPCR, Ambit Biosciences)
PI3Kβ = target: T1, PI3Kβ (Homo sapiens, UniProt P42338); settings: read-out: inhibitory activity (IC50) against PI3Kβ
T1 construct: purchased Ambit Biosciences; host or cells: E. coli BL21-derived host (T7 phage) or HEK-293
Protocol: (§1) Assays were performed as described in Fabian et al. (2005) Nature Biotechnology, vol. 23, p. 329 and in Karaman et al. (2008) Nature Biotechnology, vol. 26, p. 127.
(§2) Kinase assays. For most assays, kinase-tagged T7 phage strains were grown in parallel in 24-well blocks in an E. coli host derived from the BL21 strain. E. coli were grown to log-phase and infected with T7 phage from a frozen stock (multiplicity of infection ˜0.1) and incubated with shaking at 32° C. until lysis (˜90 minutes). The lysates were centrifuged (6,000×g) and filtered ([…]) to remove cell debris. The remaining kinases were produced in HEK-293 cells and subsequently tagged with DNA for qPCR detection. Streptavidin-coated magnetic beads were treated with biotinylated small molecule ligands for 30 minutes at room temperature to generate affinity resins for kinase assays. The liganded beads were blocked with excess biotin and washed with blocking buffer (SeaBlock (Pierce), 1% BSA, 0.05% Tween 20, 1 mM DTT) to remove unbound ligand and to reduce non-specific phage binding. Binding reactions were assembled by combining kinases, liganded affinity beads, and test compounds in 1× binding buffer (20% SeaBlock, 0.17×PBS, 0.05% Tween 20, 6 mM DTT). Test compounds were prepared as 40× stocks in 100% DMSO and directly diluted into the assay. All reactions were performed in polypropylene 384-well plates in a final volume of 0.04 ml. The assay plates were incubated at room temperature with shaking for 1 hour and the affinity beads were washed with wash buffer (1×PBS, 0.05% Tween 20). The beads were then re-suspended in elution buffer (1×PBS, 0.05% Tween 20, 0.5 mM non-biotinylated affinity ligand) and incubated at room temperature with shaking for 30 minutes. The kinase concentration in the eluates was measured by qPCR.
(§3) Compounds were tested using the above assay at Ambit Biosciences (San Diego, Calif., USA).

PI3Kα = target: T2, PI3Kα (Homo sapiens, UniProt P42336); settings: read-out: inhibitory activity (IC50) against PI3Kα
T2 construct: purchased Ambit Biosciences; host or cells: E. coli BL21-derived host (T7 phage) or HEK-293
Protocol: as §1, §2, §3

mTOR = target: T3, mTOR (Homo sapiens, UniProt P42345); settings: read-out: inhibitory activity (IC50) against mTOR
T3 construct: purchased Ambit Biosciences; host or cells: E. coli BL21-derived host (T7 phage) or HEK-293
Protocol: as §1, §2, §3

PI3Kδ = target: T4, PI3Kδ (Homo sapiens, UniProt O00329)
T4 construct: purchased Ambit Biosciences; host or cells: E. coli BL21-derived host (T7 phage) or HEK-293
T4 sequence (O00329 1-1044): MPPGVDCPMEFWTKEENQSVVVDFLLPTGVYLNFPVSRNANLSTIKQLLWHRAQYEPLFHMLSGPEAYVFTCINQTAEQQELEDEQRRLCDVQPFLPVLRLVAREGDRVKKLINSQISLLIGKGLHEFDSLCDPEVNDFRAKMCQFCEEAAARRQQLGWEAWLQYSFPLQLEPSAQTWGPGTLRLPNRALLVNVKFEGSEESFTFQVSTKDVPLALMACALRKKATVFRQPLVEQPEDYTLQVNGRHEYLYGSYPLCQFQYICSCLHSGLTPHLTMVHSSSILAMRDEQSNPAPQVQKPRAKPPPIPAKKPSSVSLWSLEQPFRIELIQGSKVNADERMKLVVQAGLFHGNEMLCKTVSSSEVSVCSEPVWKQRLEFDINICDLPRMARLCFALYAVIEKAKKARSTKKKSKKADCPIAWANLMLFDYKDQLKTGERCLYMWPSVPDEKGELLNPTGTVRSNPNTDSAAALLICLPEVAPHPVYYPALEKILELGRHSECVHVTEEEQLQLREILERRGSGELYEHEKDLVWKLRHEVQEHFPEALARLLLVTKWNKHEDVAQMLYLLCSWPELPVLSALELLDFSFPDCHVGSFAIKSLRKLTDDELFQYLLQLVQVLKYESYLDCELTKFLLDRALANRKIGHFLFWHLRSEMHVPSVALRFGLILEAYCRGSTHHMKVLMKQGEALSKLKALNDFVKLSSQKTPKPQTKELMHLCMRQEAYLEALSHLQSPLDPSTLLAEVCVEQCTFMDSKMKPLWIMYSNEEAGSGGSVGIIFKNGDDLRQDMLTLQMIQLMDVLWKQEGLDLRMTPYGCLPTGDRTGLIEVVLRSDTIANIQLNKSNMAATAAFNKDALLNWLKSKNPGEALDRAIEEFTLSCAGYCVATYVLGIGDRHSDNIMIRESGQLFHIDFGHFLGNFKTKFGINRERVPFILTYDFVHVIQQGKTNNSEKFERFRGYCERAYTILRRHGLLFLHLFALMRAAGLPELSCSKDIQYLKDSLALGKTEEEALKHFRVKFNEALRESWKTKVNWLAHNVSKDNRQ
Protocol: as §1, §2, §3

PI3Kγ = target: T5, PI3Kγ (Homo sapiens, UniProt P48736); settings: read-out: inhibitory activity (IC50) against PI3Kγ
T5 construct: purchased Ambit Biosciences; host or cells: E. coli BL21-derived host (T7 phage) or HEK-293
Protocol: as §1, §2, §3

T5 sequence (P48736 whole entry): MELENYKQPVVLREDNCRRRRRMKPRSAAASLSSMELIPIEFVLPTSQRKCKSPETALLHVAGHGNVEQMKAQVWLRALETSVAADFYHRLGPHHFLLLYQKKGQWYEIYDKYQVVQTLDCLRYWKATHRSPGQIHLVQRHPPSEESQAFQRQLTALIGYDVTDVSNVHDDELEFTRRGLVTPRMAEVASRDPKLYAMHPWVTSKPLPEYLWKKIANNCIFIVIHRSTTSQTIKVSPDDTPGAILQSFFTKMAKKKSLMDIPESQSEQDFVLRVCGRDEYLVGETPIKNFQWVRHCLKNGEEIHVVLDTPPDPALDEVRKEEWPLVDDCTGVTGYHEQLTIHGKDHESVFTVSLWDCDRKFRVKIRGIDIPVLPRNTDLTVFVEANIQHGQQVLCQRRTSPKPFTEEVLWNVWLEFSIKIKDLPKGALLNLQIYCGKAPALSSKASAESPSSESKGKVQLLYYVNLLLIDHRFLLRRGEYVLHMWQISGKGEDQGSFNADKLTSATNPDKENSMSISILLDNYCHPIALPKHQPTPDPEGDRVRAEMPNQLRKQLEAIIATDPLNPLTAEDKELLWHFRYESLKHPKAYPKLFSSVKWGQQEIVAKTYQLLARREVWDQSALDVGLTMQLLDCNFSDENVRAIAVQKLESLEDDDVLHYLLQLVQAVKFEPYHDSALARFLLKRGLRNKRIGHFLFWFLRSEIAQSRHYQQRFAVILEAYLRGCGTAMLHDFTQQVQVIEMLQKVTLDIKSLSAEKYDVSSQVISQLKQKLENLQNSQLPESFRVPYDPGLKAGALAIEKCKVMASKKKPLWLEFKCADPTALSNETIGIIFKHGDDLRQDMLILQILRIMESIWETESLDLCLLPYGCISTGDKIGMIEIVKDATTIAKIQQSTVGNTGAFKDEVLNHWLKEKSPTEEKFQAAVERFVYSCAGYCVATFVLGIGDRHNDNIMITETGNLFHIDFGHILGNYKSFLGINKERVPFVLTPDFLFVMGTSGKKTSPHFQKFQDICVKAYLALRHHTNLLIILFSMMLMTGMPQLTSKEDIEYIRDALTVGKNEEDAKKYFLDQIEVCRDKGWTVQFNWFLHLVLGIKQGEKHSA
T2 sequence (P42336 whole entry): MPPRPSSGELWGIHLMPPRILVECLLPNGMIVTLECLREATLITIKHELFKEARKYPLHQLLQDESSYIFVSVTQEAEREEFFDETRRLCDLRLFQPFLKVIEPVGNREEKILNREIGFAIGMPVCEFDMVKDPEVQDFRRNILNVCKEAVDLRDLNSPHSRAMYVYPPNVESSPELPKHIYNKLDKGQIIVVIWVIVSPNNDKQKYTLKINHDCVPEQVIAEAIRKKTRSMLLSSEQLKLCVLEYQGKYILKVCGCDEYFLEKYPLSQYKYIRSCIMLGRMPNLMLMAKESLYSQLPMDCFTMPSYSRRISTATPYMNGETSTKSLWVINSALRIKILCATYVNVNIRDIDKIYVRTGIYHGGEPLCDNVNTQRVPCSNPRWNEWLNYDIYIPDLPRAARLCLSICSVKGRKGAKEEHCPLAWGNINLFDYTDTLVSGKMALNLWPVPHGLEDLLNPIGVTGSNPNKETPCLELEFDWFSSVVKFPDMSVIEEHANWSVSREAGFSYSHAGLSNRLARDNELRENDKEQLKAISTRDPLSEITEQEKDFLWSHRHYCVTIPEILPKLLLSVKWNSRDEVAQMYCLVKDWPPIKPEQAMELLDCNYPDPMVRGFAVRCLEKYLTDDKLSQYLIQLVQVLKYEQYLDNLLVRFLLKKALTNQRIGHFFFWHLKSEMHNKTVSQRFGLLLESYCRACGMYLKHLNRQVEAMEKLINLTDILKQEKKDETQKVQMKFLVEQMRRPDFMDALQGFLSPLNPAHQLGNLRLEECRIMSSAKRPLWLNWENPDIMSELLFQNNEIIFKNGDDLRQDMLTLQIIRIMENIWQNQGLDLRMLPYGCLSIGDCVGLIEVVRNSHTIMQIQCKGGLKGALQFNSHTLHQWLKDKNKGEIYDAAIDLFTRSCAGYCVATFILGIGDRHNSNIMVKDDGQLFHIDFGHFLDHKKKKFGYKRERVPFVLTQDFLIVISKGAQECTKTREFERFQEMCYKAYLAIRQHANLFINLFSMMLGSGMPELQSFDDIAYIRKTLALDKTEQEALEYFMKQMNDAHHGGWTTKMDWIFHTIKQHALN
T1 sequence (P42338 whole entry): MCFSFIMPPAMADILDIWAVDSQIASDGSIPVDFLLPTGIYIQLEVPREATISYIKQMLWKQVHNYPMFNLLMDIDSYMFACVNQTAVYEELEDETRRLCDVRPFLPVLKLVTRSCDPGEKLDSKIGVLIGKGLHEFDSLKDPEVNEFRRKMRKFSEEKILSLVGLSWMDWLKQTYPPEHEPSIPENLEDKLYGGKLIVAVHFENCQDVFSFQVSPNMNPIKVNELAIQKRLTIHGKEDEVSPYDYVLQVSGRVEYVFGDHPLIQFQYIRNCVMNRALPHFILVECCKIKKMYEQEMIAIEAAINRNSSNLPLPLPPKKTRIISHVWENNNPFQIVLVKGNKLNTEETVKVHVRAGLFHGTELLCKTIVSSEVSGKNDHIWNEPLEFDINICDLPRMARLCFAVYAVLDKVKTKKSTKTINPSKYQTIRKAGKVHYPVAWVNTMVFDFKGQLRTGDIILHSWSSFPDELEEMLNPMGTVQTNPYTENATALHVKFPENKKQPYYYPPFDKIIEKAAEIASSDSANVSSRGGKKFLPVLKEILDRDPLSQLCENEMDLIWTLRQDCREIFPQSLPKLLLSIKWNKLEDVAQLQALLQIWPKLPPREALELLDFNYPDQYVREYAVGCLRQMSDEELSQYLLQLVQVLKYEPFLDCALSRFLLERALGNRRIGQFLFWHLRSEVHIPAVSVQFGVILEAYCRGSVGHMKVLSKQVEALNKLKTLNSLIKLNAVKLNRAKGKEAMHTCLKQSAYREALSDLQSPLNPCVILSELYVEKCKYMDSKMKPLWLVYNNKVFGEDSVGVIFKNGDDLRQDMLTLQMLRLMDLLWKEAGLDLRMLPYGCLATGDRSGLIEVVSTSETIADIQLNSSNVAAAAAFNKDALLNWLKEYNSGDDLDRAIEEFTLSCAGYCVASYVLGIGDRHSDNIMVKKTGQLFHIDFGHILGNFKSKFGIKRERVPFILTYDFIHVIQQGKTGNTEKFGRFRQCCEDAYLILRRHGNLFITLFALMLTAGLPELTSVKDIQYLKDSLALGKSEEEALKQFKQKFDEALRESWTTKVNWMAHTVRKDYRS

SMILES | IC50 (PI3Kβ) | IC50 (PI3Kα) | IC50 (mTOR) | IC50 (PI3Kδ) | IC50 (PI3Kγ) | IC50 (PI3Kδ; read-out: IC50, inhibition against PI3Kδ) | inhibition against PI3Kδ (PI3Kδ; at up to 100 nM)
OCCn1cnc2c(-n3c(C(F)F)nc4ccccc43)nc(N3CCOCC3)nc21 [Example 2, 2-{6-[2-(difluoromethyl)benzimidazol-1-yl]-2-morpholin-4-ylpurin-9-yl}ethan-1-ol] | > 0.1 µM | > 0.1 µM | > 0.1 µM | < 0.1 µM | > 0.1 µM |  | 
COc1cccc2c1nc(C(F)F)n2-c1nc(N2CCOCC2)nc2c1ncn2C1CCOCC1 [Example 21, 1-(9-(2H-3,4,5,6-tetrahydropyran-4-yl)-2-morpholin-4-ylpurin-6-yl)-2-(difluoromethyl)-4-methoxybenzimidazole] |  | < 0.1 µM |  |  | < 0.1 µM | < 0.1 µM | 
Cc1nc2ccccc2n1-c1nc(N2CCOCC2)nc2c1ncn2CCO [Example 2d, reference compound] |  |  |  |  |  |  | did not show significant inhibition
